Source: patent US20110262508A1, “ANTIMICROBIAL COMPOSITIONS, FORMULATIONS AND USES THEREOF” (priority 2007, published 2011)
Converted amounts (≈) assume the structure as drawn. Read-outs that look alike come from different tables or passages of the source. Square brackets hold non-standard residues; d marks the D form. Peptide text beside a SMILES is read from it.

System: A. baumannii
Type: cell-based
Text: Broth dilution methods are e.g., described by Lorian (2007) In: Antibiotics in Laboratory Medicine, Fifth Edition; and In: Clinical and Laboratory Standards Institute, CLSI (formerly NCCLS), In: Methods for Dilution Antimicrobial Susceptibility Tests for Bacteria that Grow Aerobically—Approved Standard—Seventh Edition, CLSI document M7-A7, Villanova, Pa. (NCCLS; January 2006; Vol. 26 No. 2); and In: Clinical and Laboratory Standards Institute, CLSI (formerly NCCLS), Performance Standards for Antimicrobial Susceptibility Testing, Seventeenth Informational Supplement, M100-S17, Vol 27 No. 1 January 2007, all of which are incorporated herein by reference.
The present inventors used such methods to quantitate activity in vitro of antimicrobial peptides of the invention against bacterial isolates, including laboratory strains and 50 clinical isolates of A. baumannii, and S. aureus ATCC Accession No. 2992. Briefly, small volumes of broth are dispensed in sterile, plastic microtiter trays, and 100 μl of serially-diluted antimicrobial peptide (0.1-64 μg) and 100 μl test organism (approximately 1×10^5 C.F.U.), are added. Following aerobic incubation overnight at 35±2° C. Control samples lacked peptide (Growth control), or lacked peptide and bacteria (Sterility control). The trays were examined visually and the minimal inhibitory concentration (MIC) of peptide required to inhibit bacterial growth were determined. The minimum bactericidal concentration (MBC) was estimated by sub-culturing the wells for which no bacterial growth was visible to the naked eye, to thereby determine a concentration of antimicrobial that reduces the original inoculum by at least about 99.9%.

SMILES	MIC (μM) for non-amidated Peptide	MBC	MIC	further results
CC(C)C[C@@H](NC(=O)[C@@H](CCCNC(=N)N)NC(=O)[C@H](N)Cc1ccc(O)cc1)C(=O)N[C@H](CC(C)C)C(=O)N[C@H](CCCNC(=N)N)C(=O)N[C@H](CCCCN)C(=O)N[C@@H](C(=O)N[C@@H](C(=O)N[C@H](Cc1ccccc1)C(=O)N[C@H](CS)C(=O)N[C@H](CC(C)C)C(=O)N[C@H](CCCCN)C(=O)N[C@@H](C(=O)N[C@H](CO)C(=O)N[C@H](CC(C)C)C(=O)N[C@@H](C(=O)N[C@H](CCCCN)C(=O)N1CCC[C@@H]1C(=O)N[C@H](Cc1ccccc1)C(=O)N[C@H](Cc1c[nH]cn1)C(=O)N[C@H](Cc1ccccc1)C(=O)N[C@H](Cc1ccc(O)cc1)C(=O)N1CCC[C@@H]1C(=O)O)[C@H](C)O)[C@H](C)O)[C@H](C)O)[C@H](C)O [Ac5r] (H-[dY][dR][dL][dL][dR][dK][dT][dT][dF][dC][dL][dK][dT][dS][dL][dT][dK][dP][dF][dH][dF][dY][dP]-OH; N-terminus and C-terminus assumed)	15 µM			MIC (μM) for amidated peptide: 5 µM
CC[C@H](C)[C@H](NC(=O)[C@H](CS)NC(=O)[C@H](CS)NC(=O)[C@H](CCCNC(=N)N)NC(=O)[C@H](CC(=O)O)NC(=O)[C@H](CO)NC(=O)[C@H](CC(C)C)NC(=O)[C@H](CCCNC(=N)N)NC(=O)[C@H](CCCNC(=N)N)NC(=O)[C@H](CC(C)C)NC(=O)[C@H](Cc1ccccc1)NC(=O)CNC(=O)[C@H](CO)NC(=O)[C@@H]1CCCN1C(=O)[C@H](Cc1c[nH]c2ccccc12)NC(=O)[C@@H](NC(=O)[C@@H]1CCCN1)C(C)C)C(=O)N[C@@H](Cc1c[nH]cn1)C(=O)N[C@@H](CO)C(=O)N[C@@H](CCCNC(=N)N)C(=O)N[C@@H](CCC(N)=O)C(=O)N[C@@H](C)C(=O)N[C@@H](CCC(N)=O)C(=O)O [Ac329] (H-PVWPSGFLRRLSDRCCIHSRQAQ-OH; N-terminus and C-terminus assumed)		39 µM (≈ 106 µg/mL)	30 µM (≈ 81.4 µg/mL)	
CSCC[C@H](NC(=O)[C@H](CC(C)C)NC(=O)[C@H](CCCCN)NC(=O)[C@H](CCCCN)NC(=O)[C@@H](NC(=O)[C@@H](NC(=O)[C@H](C)NC(=O)[C@H](Cc1ccccc1)NC(=O)[C@H](Cc1ccc(O)cc1)NC(=O)CNC(=O)[C@H](CS)NC(=O)[C@H](Cc1c[nH]cn1)NC(=O)[C@@H]1CCCN1C(=O)CNC(=O)CN)[C@@H](C)O)[C@@H](C)O)C(=O)N[C@@H](CCCNC(=N)N)C(=O)N[C@@H](CCCCN)C(=O)N[C@H](C(=O)N1CCC[C@H]1C(=O)NCC(=O)N[C@@H](CCCNC(=N)N)C(=O)N[C@@H](CC(C)C)C(=O)N[C@H](C(=O)O)C(C)C)C(C)C [Ac330] (H-GGPHCGYFATTKKLMRKVPGRLV-OH; N-terminus and C-terminus assumed)				MIC (A. baumannii (Table 8)): 20 µM (≈ 50.3 µg/mL); MBC (A. baumannii (Table 8), reduces original inoculum by at least about 99.9%): 40 µM (≈ 101 µg/mL); MIC (μM) for non-amidated Peptide (non-amidated peptide, strongly inhibitory against A. baumannii (Table 7)): 20 µM
CC[C@H](C)[C@H](NC(=O)[C@H](CCCNC(=N)N)NC(=O)[C@H](CCCNC(=N)N)NC(=O)[C@H](CC(C)C)NC(=O)[C@H](CC(=O)O)NC(=O)[C@H](CCC(=O)O)NC(=O)[C@H](CCCNC(=N)N)NC(=O)[C@H](CC(C)C)NC(=O)[C@H](CCCNC(=N)N)NC(=O)CNC(=O)[C@H](CO)NC(=O)[C@H](Cc1ccccc1)NC(=O)[C@@H](NC(=O)[C@H](CC(C)C)NC(=O)[C@@H](NC(=O)CNC(=O)[C@H](Cc1ccccc1)NC(=O)[C@@H](NC(=O)[C@@H](NC(=O)CNC(=O)CN)C(C)C)C(C)C)C(C)C)[C@@H](C)O)C(=O)N[C@@H](CS)C(=O)N[C@@H](CCCNC(=N)N)C(=O)O [Ac338] (H-GGVVFGVLTFSGRLREDLRRICR-OH; N-terminus and C-terminus assumed)		30 µM (≈ 78.2 µg/mL)	30 µM (≈ 78.2 µg/mL)	
CC[C@H](C)[C@H](NC(=O)[C@H](CCC(N)=O)NC(=O)[C@H](CCCNC(=N)N)NC(=O)[C@H](CS)NC(=O)[C@@H](NC(=O)[C@H](CCCNC(=N)N)NC(=O)[C@H](CCCNC(=N)N)NC(=O)[C@H](CC(C)C)NC(=O)[C@H](CC(=O)O)NC(=O)[C@H](CCC(=O)O)NC(=O)[C@H](CCCNC(=N)N)NC(=O)[C@H](CC(C)C)NC(=O)[C@H](CCCNC(=N)N)NC(=O)CNC(=O)[C@H](CO)NC(=O)[C@H](Cc1ccccc1)NC(=O)[C@@H](NC(=O)[C@H](CC(C)C)NC(=O)[C@@H](NC(=O)CN)C(C)C)[C@@H](C)O)[C@@H](C)CC)C(=O)N[C@@H](CO)C(=O)N[C@@H](C)C(=O)N[C@@H](Cc1ccc(O)cc1)C(=O)O [Ac339] (H-GVLTFSGRLREDLRRICRQISAY-OH; N-terminus and C-terminus assumed)	20 µM	40 µM (≈ 108 µg/mL)	20 µM (≈ 54.2 µg/mL)	
CC[C@H](C)[C@H](NC(=O)[C@H](CCC(N)=O)NC(=O)[C@H](CCCNC(=N)N)NC(=O)[C@H](CS)NC(=O)[C@@H](NC(=O)[C@H](CCCNC(=N)N)NC(=O)[C@H](CCCNC(=N)N)NC(=O)[C@H](CC(C)C)NC(=O)[C@H](CC(=O)O)NC(=O)[C@H](CCC(=O)O)NC(=O)[C@H](CCCNC(=N)N)NC(=O)[C@H](CC(C)C)NC(=O)[C@H](CCCNC(=N)N)NC(=O)CNC(=O)[C@@H](N)CO)[C@@H](C)CC)C(=O)N[C@@H](CO)C(=O)N[C@@H](C)C(=O)N[C@@H](Cc1ccc(O)cc1)C(=O)N[C@@H](CCCCN)C(=O)N[C@@H](CO)C(=O)N[C@@H](CC(=O)O)C(=O)N[C@@H](CO)C(=O)N[C@@H](CO)C(=O)O [Ac340] (H-SGRLREDLRRICRQISAYKSDSS-OH; N-terminus and C-terminus assumed)		40 µM (≈ 108 µg/mL)	40 µM (≈ 108 µg/mL)	
CC[C@H](C)[C@H](NC(=O)[C@H](CO)NC(=O)[C@H](Cc1c[nH]c2ccccc12)NC(=O)[C@H](CS)NC(=O)[C@H](CCCNC(=N)N)NC(=O)[C@H](CS)NC(=O)[C@@H](NC(=O)[C@@H](NC(=O)[C@@H]1CCCN1C(=O)[C@H](CCCNC(=N)N)NC(=O)[C@H](C)NC(=O)[C@H](C)NC(=O)[C@H](CS)NC(=O)[C@H](CCCNC(=N)N)NC(=O)[C@H](CCCCN)NC(=O)[C@H](CCCNC(=N)N)NC(=O)[C@@H](N)[C@@H](C)O)[C@@H](C)O)[C@@H](C)O)C(=O)NCC(=O)N[C@@H](CCCNC(=N)N)C(=O)N[C@@H](C)C(=O)N[C@@H](Cc1c[nH]c2ccccc12)C(=O)N[C@@H](CCCCN)C(=O)N[C@@H](C)C(=O)O [Ac364] (H-TRKRCAARPTTCRCWSIGRAWKA-OH; N-terminus and C-terminus assumed)		40 µM (≈ 107 µg/mL)	40 µM (≈ 107 µg/mL)	
CSCC[C@H](N)C(=O)NCC(=O)N[C@@H](CCCNC(=N)N)C(=O)N[C@@H](CC(C)C)C(=O)N[C@@H](CO)C(=O)NCC(=O)N[C@H](C(=O)N[C@@H](C)C(=O)N[C@@H](Cc1c[nH]c2ccccc12)C(=O)N[C@@H](CCCNC(=N)N)C(=O)N[C@@H](CCCNC(=N)N)C(=O)N[C@@H](CC(C)C)C(=O)N[C@@H](CO)C(=O)N[C@@H](CC(C)C)C(=O)N[C@@H](CCCNC(=N)N)C(=O)N[C@@H](Cc1c[nH]cn1)C(=O)N[C@@H](CS)C(=O)N[C@@H](CCC(=O)O)C(=O)N[C@@H](CS)C(=O)NCC(=O)N[C@@H](CCCNC(=N)N)C(=O)N[C@@H](CCCNC(=N)N)C(=O)N1CCC[C@H]1C(=O)O)C(C)C [Ac370] (H-MGRLSGVAWRRLSLRHCECGRRP-OH; N-terminus and C-terminus assumed)	20 µM	20 µM (≈ 53.9 µg/mL)	20 µM (≈ 53.9 µg/mL)	
